# How the values were obtained:
# patients with MF [1] = assay: Phase 2 hematologic parameters and transfusions; format: in vivo, human
# Experimental: At screening/baseline, patients underwent a medical history, physical examination, vital sign assessment, ECOG PS assessment, electrocardiogram, and assessment of hematologic parameters and blood chemistry. Hematology/blood chemistry, physical examinations, and vital sign assessments were performed throughout treatment. Toxicity was assessed using the National Cancer Institute Common Terminology Criteria for Adverse Events (NCIC-CTCAE), version 3.0, with relationship to treatment assigned by the investigator and were recorded from the first dose of pacritinib until 30 days after the last dose. Bone marrow biopsy and/or aspirate samples were drawn at baseline, on day 1 of cycle 4 and cycle 10, as clinically indicated, and at the termination visit. Disease response and progression were determined using the relevant International Working Group (IWG) criteria.
# patients with MF [2] = assay: Phase 2 spleen response (volume by MRI, length by physical examination); format: in vivo, human; settings: phase 2, 400 mg QD
# Experimental: In phase 2, abdominal MRI to assess spleen and liver volume was performed on day 1 of cycles 1, 4, and 7 and then day 1 of every third cycle through cycle 25. Spleen size (length) was also assessed by manual palpation with each scheduled physical examination. The phase 2 study protocol was amended in September 2009 to include the MF Quality of Life and Symptoms Assessment Tool. […] The instrument was administered pre-dose on day 1 of cycles 1, 2, 4, 7, and 10 and then on day 1 of every third cycle through cycle 25.
# The primary endpoint of the phase 2 component was the proportion of the efficacy population who achieved a ≥35% reduction in spleen volume from baseline at week 24, as measured by MRI. Spleen response rate was also assessed in terms of a ≥35% reduction in spleen volume by MRI up to week 24 and end of treatment and as a ≥50% reduction in spleen length by physical examination up to week 24 and end of treatment. Duration of response was not analyzed due to limitations in the proportion of responders. An exploratory endpoint was the proportion of patients with a ≥50% reduction in MF Quality of Life and Symptoms Assessment Tool at week 24 compared with baseline.
# The planned sample size of 29 patients for the phase 2 component provided 80% power to detect a spleen response rate of ≥30% versus the null hypothesis of a response rate of ≤10%, with α = 0.05 (two-sided). The efficacy-evaluable population included those patients with a baseline and corresponding follow-up value. The safety population included all enrolled patients who received ≥1 dose of pacritinib.
# [3] = phase 2, during the study, n = 31
structure (smiles),measurement,setting,value
"C1=C/COCc2cc(ccc2OCCN2CCCC2)Nc2nccc(n2)-c2cccc(c2)COC/1 [pacritinib, 11-(2-pyrrolidin-1-yl-ethoxy)-14,19-dioxa-5,7,26-triaza-tetracyclo[19.3.1.1(2,6). 1(8,12)]heptacosa-1(25),2(26),3,5,8,10,12(27),16,21,23-decaene]","Lymphocytes, Median % change from baseline","patients with MF [1]; phase 2, Week 16",22.22%
same,"Neutrophils, Median % change from baseline","patients with MF [1]; phase 2, Week 16",-33.04%
same,"Platelets, Median % change from baseline","patients with MF [1]; phase 2, Week 16",-20.1%
same,"Red blood cells, Median % change from baseline","patients with MF [1]; phase 2, Week 16",6.16%
same,"Hematocrit, Median % change from baseline","patients with MF [1]; phase 2, Week 20",-1.30%
same,"Hemoglobin, Median % change from baseline","patients with MF [1]; phase 2, Week 20",5.8%
same,"Leukocytes, Median % change from baseline","patients with MF [1]; phase 2, Week 20",-25.83%
same,"Lymphocytes, Median % change from baseline","patients with MF [1]; phase 2, Week 20",37.07%
same,"Neutrophils, Median % change from baseline","patients with MF [1]; phase 2, Week 20",-32.93%
same,"Platelets, Median % change from baseline","patients with MF [1]; phase 2, Week 20",-11.7%
same,"Red blood cells, Median % change from baseline","patients with MF [1]; phase 2, Week 20",-0.30%
same,"Hematocrit, Median % change from baseline","patients with MF [1]; phase 2, Week 24",3.01%
same,"Hemoglobin, Median % change from baseline","patients with MF [1]; phase 2, Week 24",7.3%
same,"Leukocytes, Median % change from baseline","patients with MF [1]; phase 2, Week 24",-30.34%
same,"Lymphocytes, Median % change from baseline","patients with MF [1]; phase 2, Week 24",44.14%
same,"Neutrophils, Median % change from baseline","patients with MF [1]; phase 2, Week 24",-43.24%
same,"Platelets, Median % change from baseline","patients with MF [1]; phase 2, Week 24",-23.7%
same,"Red blood cells, Median % change from baseline","patients with MF [1]; phase 2, Week 24",2.46%
same,"Hematocrit, Median % change from baseline","patients with MF [1]; phase 2, Week 36",-2.91%
same,"Hemoglobin, Median % change from baseline","patients with MF [1]; phase 2, Week 36",-0.4%
same,"Leukocytes, Median % change from baseline","patients with MF [1]; phase 2, Week 36",-18.32%
same,"Lymphocytes, Median % change from baseline","patients with MF [1]; phase 2, Week 36",58.89%
same,"Neutrophils, Median % change from baseline","patients with MF [1]; phase 2, Week 36",-33.96%
same,"Platelets, Median % change from baseline","patients with MF [1]; phase 2, Week 36",-23.4%
same,"Red blood cells, Median % change from baseline","patients with MF [1]; phase 2, Week 36",-3.15%
same,"Hematocrit, Median % change from baseline","patients with MF [1]; phase 2, Week 48",-2.39%
same,"Hemoglobin, Median % change from baseline","patients with MF [1]; phase 2, Week 48",10.1%
same,"Leukocytes, Median % change from baseline","patients with MF [1]; phase 2, Week 48",-5.13%
same,"Lymphocytes, Median % change from baseline","patients with MF [1]; phase 2, Week 48",61.70%
same,"Neutrophils, Median % change from baseline","patients with MF [1]; phase 2, Week 48",-28.84%
same,"Platelets, Median % change from baseline","patients with MF [1]; phase 2, Week 48",-16.3%
same,"Red blood cells, Median % change from baseline","patients with MF [1]; phase 2, Week 48",-3.87%
same,"Hematocrit, Median % change from baseline","patients with MF [1]; phase 2, Week 60",3.70%
same,"Hemoglobin, Median % change from baseline","patients with MF [1]; phase 2, Week 60",4.7%
same,"Leukocytes, Median % change from baseline","patients with MF [1]; phase 2, Week 60",-28.21%
same,"Lymphocytes, Median % change from baseline","patients with MF [1]; phase 2, Week 60",40.43%
same,"Neutrophils, Median % change from baseline","patients with MF [1]; phase 2, Week 60",-40.17%
same,"Platelets, Median % change from baseline","patients with MF [1]; phase 2, Week 60",-31.3%
same,"Red blood cells, Median % change from baseline","patients with MF [1]; phase 2, Week 60",1.48%
same,Patients who received RBC transfusions,patients with MF [1]; [3],51.6%
same,Patients who received platelet transfusions,patients with MF [1]; [3],9.7%
same,"Platelet transfusions, median","patients with MF [1]; phase 2, three transfused patients",3 units
same,"Median neutrophil count, span over visits","patients with MF [1]; phase 2, through week 60",3.83 to 6.00 × 10^9/L
same,"Median platelet count, span over visits","patients with MF [1]; phase 2, through week 60",89 to 155 × 10^9/L
same,Patients with hemoglobin levels <8 g/L,"patients with MF [1]; phase 2, week 24 (1/20)",5.0%
same,Patients with leukocyte counts >25 × 10^9/L,"patients with MF [1]; phase 2, week 24 (2/20)",10.0%
same,Patients with platelet counts <50 × 10^9/L,"patients with MF [1]; phase 2, week 24 (2/20)",10.0%
same,Patients with hemoglobin levels <10 g/L,"patients with MF [1]; phase 2, week 24 (10/20)",50.0%
same,Patients with platelet counts <100 × 10^9/L,"patients with MF [1]; phase 2, week 24 (10/20)",50.0%
same,Evaluable patients achieving ≥35% spleen volume reduction by MRI (primary endpoint),patients with MF [2]; at week 24 (4/17),23.5%
same,Patients achieving ≥50% spleen length reduction by physical examination,patients with MF [2]; at week 24 (9/19),47.4%
same,Patients achieving ≥35% spleen volume reduction by MRI,patients with MF [2]; up to end of treatment (7/23),30.4%
same,Patients achieving ≥50% spleen length reduction by physical examination,patients with MF [2]; up to end of treatment (12/31),38.7%
